# Legend:
# [1] = Preparation of liposomes (vesicle solution); type: physicochemical
# Description: Cationic liposomes comprising derivatives I-XXI were prepared by dissolving the crystalline derivative in chloroform. The solvent was evaporated under a stream of nitrogen for 45 min in vacuum. The resulting thin films were resuspended in 4 ml deionized water, vortexed and sonicated in bath type sonicator 30′ until the solution became clear. (The final concentration of liposomes was 2.5 mM.) In order to prepare the liposomes of derivatives I-XXI (Table 2) high temperatures (40-65° C.) were used. Derivatives XXII-XXVII (Table 2) were dissolved in deionized water, vortexed and sonicated 5-7 min in a bath sonicator.
# [2] = system: CV-1P (African monkey green kidney fibroblasts cells); assay: In vitro transfection of plasmid DNA, β-galactosidase activity per well; type: cell-based; conditions: for transfection efficiency: CVI-P
# Summary of the method: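 CV-1P cells (20 000/well) given compound/DNA complexes at various charge ratios, prepared in 50 mM MES–50 mM HEPES–75 mM NaCl pH 7.2, 0.6 μg DNA/well, for 5 h at 37 °C, then 45 h in growth medium. Lysates assayed for β-galactosidase via oNPG hydrolysis at 405 nm against an E. coli enzyme standard; efficiency expressed as percent of Lipofectin.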
# [3] = system: D407 (human retinal pigment epithelial) cells; assay: as above; type: cell-based; conditions: for transfection efficiency: D 407
# Description: Transfer of plasmid DNA by various compounds was investigated by using CV-1P (African monkey green kidney fibroblasts cells) and D407 (human retinal pigment epithelial) cells.
# The cells were cultured in Dulbecco's modified Eagle's medium (DMEM, Gibco), supplemented with 10% fetal bovine serum (FBS), penicillin/streptomycin (100 units/ml and 100 μg/ml respectively) and 2 mM L-glutamine for D 407 cell line. Cell cultures were maintained at 37° C. in a 7% CO2/air incubator. The cells were collected, counted and seeded in growth medium (100 μl) into 96-well culture plate, 20 000 cells per well. One day later the medium was replaced with fresh medium without serum (150 μl)
# The complexes at different derivative/DNA charge ratios for transfection procedure were prepared just before use in 50 mM MES—50 mM HEPES—75 mM NaCl buffer, pH 7.2 in separate 96 well plates. One hour after changing the serum-free medium with 10% serum the complexes were added to the cells at 370C. Dose of DNA per well was 0.6 μg. After 5 h the complexes were removed, the cells were washed with PBS, and the normal growth medium was added. After 45 h of incubation at 37° C. the cells were lysed with 2% Triton X 100, twice deep frozen and the β-galactosidase activity in each well was determined spectrofotometrically with ELx800 automated microplate reader (Bio-Tex Instruments Inc., Winooski, Vt. USA) by monitoring the hydrolysis of o-nitrophenylgalactopyranoside (oNPG) at 405 nm. Purified β-galactosidase from E.coli was used to construct a standard curve and to calculate 9-galactosidase activity in the transfected cells. […] Transfection efficiencies are given as percentage in comparison to transfection efficiency of Lipofectin^R.
# D 407 cells = assay: Cytotoxicity of amphiphile/DNA complexes, percentage of survived cells; type: cell-based, human; set-up: concentration or dose not given beside the values
# plasmid DNA = assay: DNA condensation/complexation, EtBr displacement assay; type: binding
# Summary of the method: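 Plasmid DNA (0.6 μg/well) was mixed with 0.002% EtBr in 20 mM HEPES–150 mM NaCl pH 7.4, then cationic liposomes were added at various +/− charge ratios.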
# carotid arteries = assay: In vivo gene transfer to collared carotid arteries, X-gal staining; set-up: species or system New Zealand White rabbits; conditions: rabbit carotid artery
# Description: For in vivo studies derivative/plasmid DNA complexes were prepared by the above mentioned method. After gentle swirling the mixtures were allowed to stand in room temperatures for 30 min. prior to use. The complexes were made in phosphate buffer saline and those having +/−charge ratios of 2-8 were used.
# Five New Zealand White male rabbits of 2.5-3.5 kg were used. Fentanyl-fluanisone (0,3 mL/kg, s.c., Janssen Pharmaceutica, Beerse, Belgium) and midazolam (1.5 mg/kg, i.m., Roche, Basel, Switzerland) were used for anesthesia. Carotid arteries were exposed using midline neck incision. Arteries were carefully separated from the surrounding tissue and 3 cm silastic collar (MediGene Oy, Kuopio, Finland) was positioned around the artery. Rabbits were re-anesthetized for gene transfer, which was performed 5 days after the installation of the collars. The collars were opened and filled with 600 μL of the gene transfer solution. Rabbits were sacrificed three days after the gene transfer and arteries were removed for histological analyses.
# Collared arteries were divided into three equal parts: the proximal third was immersion-fixed in 4% paraformaldehyde/15% sucrose (pH 7.4) for 4 h, rinsed in 15% sucrose (pH 7.4) overnight and embedded in paraffin. The medial third was stored at −70° C. for later analyses. The distal third was immersion-fixed in 4% paraformaldehyde/phosphate buffered saline (pH 7.4) for 30 min, rinsed 24 h in phosphate buffer (pH 7.2) and embedded in OCT compound.
# Ten randomly selected frozen sections (10 μm) from each rabbit were stained with X-gal for 18 h to identify β-galactosidase positive cells. Mayers Carmalum-stain was, used as counter stain.
# CVI-P cells = assay: Cytotoxicity of amphiphile/DNA complexes, percentage of survived cells
# [4] = amphiphile/DNA +/− charge ratio 0.5
# [5] = amphiphile/DNA +/− charge ratio 1
# [6] = amphiphile/DNA +/− charge ratio 2
# [7] = amphiphile/DNA +/− charge ratio 4
# [8] = amphiphile/DNA +/− charge ratio 8
Molecule,"transfection efficiency [2, 4]","transfection efficiency [2, 5]","transfection efficiency [2, 6]","transfection efficiency [2, 7]","transfection efficiency [2, 8]","transfection efficiency [3, 5]","transfection efficiency [3, 6]","transfection efficiency [3, 7]","transfection efficiency [3, 8]",cytotoxicity as a percentage of survived cells (D 407 cells; [4]),cytotoxicity as a percentage of survived cells (D 407 cells; [5]),cytotoxicity as a percentage of survived cells (D 407 cells; [6]),cytotoxicity as a percentage of survived cells (D 407 cells; [7]),cytotoxicity as a percentage of survived cells (D 407 cells; [8]),"complexation, percentage of the maximum fluorescence signal when EtBr bound to DNA in the absence of an amphiphile (plasmid DNA; [4])","complexation, percentage of the maximum fluorescence signal when EtBr bound to DNA in the absence of an amphiphile (plasmid DNA; [5])","complexation, percentage of the maximum fluorescence signal when EtBr bound to DNA in the absence of an amphiphile (plasmid DNA; [6])","complexation, percentage of the maximum fluorescence signal when EtBr bound to DNA in the absence of an amphiphile (plasmid DNA; [7])","complexation, percentage of the maximum fluorescence signal when EtBr bound to DNA in the absence of an amphiphile (plasmid DNA; [8])",cytotoxicity as a percentage of survived cells (CVI-P cells; [4]),also measured
"3′,5′-Bis(cholesteryloxycarbonyl)-1′,4′-dihydro-1,2′,6′-trimethyl-3,4′-bipyridinium iodide [XII]",–,–,–,–,–,–,–,–,–,–,–,–,–,–,–,–,–,–,–,–,"vesicle solution preparation, observation in words (phrases split over cells: 'Fast residue & crystalls'; 'No vesicle solution can be prepared') [1]: No"
"CCCCCCCCCCCCOC(=O)C1=C(C[n+]2ccccc2)NC(C[n+]2ccccc2)=C(C(=O)OCCCCCCCCCCCC)C1c1ccccc1.[Br-].[Br-] [XXIII, 1,1′-{[3,5-Bis(dodecyloxycarbonyl)-1,4-dihydro-4-phenylpyridine-2,6-diyl]dimethylene}bispyridinium dibromide]","0,44 β-galactosidase units per well","0,42 β-galactosidase units per well","65,5 β-galactosidase units per well","122,8 β-galactosidase units per well","22,33 β-galactosidase units per well","0,27 β-galactosidase units per well","0,6 β-galactosidase units per well","35,82 β-galactosidase units per well","4,43 β-galactosidase units per well","93,67%","87,69%","79,68%","70,23%","11,98%","78,22%","59,03%","48,3%","44,14%","42,48%","99,71%","level of transfection compared with DOTAP ([2]; CV1-P cells, FIG. 4): ten times higher; level of transfection compared with Lipofectin ([2]; CV1-P cells, FIG. 4): at least twenty times higher; highest level of beta-galactosidase expression ([2]; confluent CV1-P cells, without serum, without DOPE): 208 mU; transfection efficiency [3, 4]: 0,27 β-galactosidase units per well; level of transfection compared with Lipofectin ([3]; D407 cells, FIG. 4): at least twenty times higher; β-galactosidase activity in arteries, result in words (carotid arteries; X-gal staining): detected at all study groups; gene transfer efficiency (carotid arteries; derivative/plasmid complexes at three charge ratios, three days after gene transfer): 0.05-1.5%; most effective charge ratio (carotid arteries; three charge ratios tested): +4; cytotoxicity as a percentage of survived cells (CVI-P cells; [5]): 94,54%; cytotoxicity as a percentage of survived cells (CVI-P cells; [6]): 93,48%; cytotoxicity as a percentage of survived cells (CVI-P cells; [7]): 89,35%; cytotoxicity as a percentage of survived cells (CVI-P cells; [8]): 42,72%"
"CCCCCCCCCCCCCCCCOC(=O)C1=C(C)NC(C)=C(C(=O)OCCCCCCCCCCCCCCCC)C1c1ccc[n+](C)c1.I.[I-] [VII, 3′,5′-Bis(hexadecyloxycarbonyl)-1′,4′-dihydro-1,2′,6′-trimethyl-3,4′-bipyridinium iodide]","0,73 β-galactosidase units per well","0,39 β-galactosidase units per well","2,2 β-galactosidase units per well","0,81 β-galactosidase units per well","0,61 β-galactosidase units per well","0,82 β-galactosidase units per well","1,37 β-galactosidase units per well","0,98 β-galactosidase units per well","0,63 β-galactosidase units per well","95,82%","84,83%","62,61%","55,53%","51,38%","90,6%","86,95%","83,11%","79,25%","77,6%","102,34%","melting point: 112 to 113 °C (dec.); cytotoxicity as a percentage of survived cells (CVI-P cells; [5]): 97,03%; cytotoxicity as a percentage of survived cells (CVI-P cells; [6]): 103,62%; cytotoxicity as a percentage of survived cells (CVI-P cells; [7]): 99,84%; cytotoxicity as a percentage of survived cells (CVI-P cells; [8]): 88,71%"
"CCCCCCCCCCCCCCCC(=O)OCCOC(=O)C1=C(C)NC(C)=C(C(=O)OCCOC(=O)CCCCCCCCCCCCCCC)C1c1ccc[n+](C)c1.I.[I-] [I, 1′,4′-Dihydro-1,2′,6′-trimethyl-3′,5′-bis[(2-palmitoyloxyethoxy)carbonyl]-3,4′-bipyridinium iodide]","0,26 β-galactosidase units per well","7,72 β-galactosidase units per well","2,89 β-galactosidase units per well","0,73 β-galactosidase units per well","0,78 β-galactosidase units per well","20,04 β-galactosidase units per well","5,72 β-galactosidase units per well","0,89 β-galactosidase units per well","0,88 β-galactosidase units per well","90,43%","80,92%","51,14%","31,39%","26,92%","89,4%","87,2%","84,4%","78,3%","73,35%","94,43%","transfection efficiency [3, 4]: 0,83 β-galactosidase units per well; melting point: 105 to 107 °C; cytotoxicity as a percentage of survived cells (CVI-P cells; [5]): 94,83%; cytotoxicity as a percentage of survived cells (CVI-P cells; [6]): 91,92%; cytotoxicity as a percentage of survived cells (CVI-P cells; [7]): 78,43%; cytotoxicity as a percentage of survived cells (CVI-P cells; [8]): 70,75%"

# Reference: patent US20030064954A1, “Cationic amphiphilic 1,4-dihydropyridine derivatives useful for delivery of nucleotide containing compounds” (priority 2000, published 2003)
